Consider four compounds from article PMC1948018 (Retrovirology, 2007).

In one data set the test system is HeLa37 cells. In words: Cell viability (ATPlite) in HeLa37 cells. Conditions: performed in parallel to the 40 hour infectivity assay. Format: cell-based. The procedure:
(§1) The impact of the P-TEFb inhibitors on cell viability was measured by ATPlite (Perkin Elmer). These cytotoxicity studies were performed as recommended by manufacturer utilizing a substrate solution that emits light in a manner proportional to the ATP present in each sample. Cells were plated in a 48-well format. Cells were treated with serial dilutions of the P-TEFb inhibitors and maintained for the indicated period of time. Mammalian cell lysis buffer was added to lyse the cells, followed by addition of the substrate solution. The amount of light produced in each well was measured in a TopCountR Microplate Scintillation and Luminescence Counter (Packard Instruments). Cytotoxicity experiments in HeLa37 cells were repeated at least three times with triplicates of each drug concentration.
For orientation: ATP-based viability assays read luminescence as a measure of living cells.

In data set [1] the target is T1, large form of P-TEFb (Homo sapiens, UniProt P50750). In words: Glycerol gradient analysis of large and free forms of P-TEFb in DRB-treated HeLa cells. Format: cell-based. How it is done: HeLa cells were grown in 100 ml of DMEM with 10% FCS to a density of 4 × 10^5 cells/ml in spinner flasks. The cells were treated for 1 hour with no P-TEFb inhibitor or serial dilutions of DRB ranging from 0.1 to 10 μM. Cell lysates were prepared in Buffer A (10 mM KCl, 10 mM MgCl2, 10 mM HEPES, 1 mM EDTA, 1 mM DTT, 0.1% PMSF and EDTA-free complete protease inhibitor cocktail (Roche)) containing 150 mM NaCl and 0.5% NP-40. The lysates were clarified by centrifugation at 20,000 g for 10 minutes at 4°C. The supernatant was layered on top of a 5–45% glycerol gradient containing 150 mM NaCl. Gradients were spun at 190,000 g for 16 hours using a SW-55Ti rotor. The fractions were analyzed for the presence of P-TEFb complexes by immunoblotting with anti-cyclin T1 and anti-Cdk9 antibodies (Santa Cruz). Following incubation with the appropriate HRP-conjugated secondary antibodies, the blots were developed using SuperSignal DuraWest (Pierce). The western blots were imaged using a cooled CCD camera (UVP) and the amount of P-TEFb in the large and free form was quantitated using LabWorks 4.0 software.
T1 sequence (P50750 whole entry): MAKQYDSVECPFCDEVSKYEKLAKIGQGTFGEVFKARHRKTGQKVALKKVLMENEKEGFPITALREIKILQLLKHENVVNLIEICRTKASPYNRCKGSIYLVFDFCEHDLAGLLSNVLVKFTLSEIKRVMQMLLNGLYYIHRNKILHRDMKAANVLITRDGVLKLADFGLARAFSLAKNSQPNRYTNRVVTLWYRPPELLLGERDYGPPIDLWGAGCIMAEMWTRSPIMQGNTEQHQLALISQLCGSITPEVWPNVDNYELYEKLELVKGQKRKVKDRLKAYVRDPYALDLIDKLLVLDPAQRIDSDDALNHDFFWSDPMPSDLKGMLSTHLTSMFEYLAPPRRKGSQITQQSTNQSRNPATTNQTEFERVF
T1 sequence (O60563 whole entry, further chain): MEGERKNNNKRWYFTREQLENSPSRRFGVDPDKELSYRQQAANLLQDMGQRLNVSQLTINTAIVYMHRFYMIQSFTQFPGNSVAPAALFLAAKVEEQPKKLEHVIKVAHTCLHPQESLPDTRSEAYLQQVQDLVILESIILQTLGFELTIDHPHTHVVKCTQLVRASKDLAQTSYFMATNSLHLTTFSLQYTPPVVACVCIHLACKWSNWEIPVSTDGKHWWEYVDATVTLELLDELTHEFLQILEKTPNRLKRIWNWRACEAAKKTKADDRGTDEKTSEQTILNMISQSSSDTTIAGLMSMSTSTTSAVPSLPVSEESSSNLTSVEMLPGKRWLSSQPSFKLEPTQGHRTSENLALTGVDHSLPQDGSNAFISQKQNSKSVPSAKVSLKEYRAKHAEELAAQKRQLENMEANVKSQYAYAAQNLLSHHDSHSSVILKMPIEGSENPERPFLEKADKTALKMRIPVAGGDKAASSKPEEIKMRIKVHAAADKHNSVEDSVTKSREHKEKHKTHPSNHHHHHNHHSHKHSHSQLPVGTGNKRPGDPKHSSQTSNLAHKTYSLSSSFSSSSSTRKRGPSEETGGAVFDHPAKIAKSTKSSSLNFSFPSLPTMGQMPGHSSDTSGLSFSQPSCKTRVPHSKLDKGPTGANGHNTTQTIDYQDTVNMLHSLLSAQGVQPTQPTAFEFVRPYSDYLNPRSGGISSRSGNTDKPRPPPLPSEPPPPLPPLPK

The target in data set [2] is T1, large form of P-TEFb. In words: Differential salt extraction, loss of large form of P-TEFb in HeLa cells. Conditions: for IC50: 1 hour treatment. Format: cell-based. How it is done:
(§2) The cytosolic extracts were prepared by resuspending the cells in 80 μl of Buffer A (10 mM KCl, 10 mM MgCl2, 10 mM HEPES, 1 mM EDTA, 1 mM DTT, 0.1% PMSF and EDTA-free complete protease inhibitor cocktail (Roche)) with 0.5% NP-40 for 10 minutes on ice. The nuclei were spun down at 5,000 g for 5 minutes and the supernatant was saved as the cytosolic extract (CE). The nuclei were washed once with 200 μl of Buffer A with 0.5% NP-40 and re-pelleted. The nuclei were resuspended in 80 μl of Buffer B (450 mM NaCl, 1.5 mM MgCl2, 20 mM HEPES, 0.5 mM EDTA, 1 mM DTT, 0.1% PMSF and EDTA-free complete protease inhibitor cocktail (Roche)) and incubated on ice for 10 minutes. The lysates were clarified by centrifugation at 20,000 g for 10 minutes. The supernatant was saved as the nuclear extract (NE). Western blotting was performed with one fifth of the samples and the fraction of Cdk9 and cyclin T1 in the cytosolic and nuclear extracts was determined by imaging the chemiluminescent signal using a cooled CCD camera (UVP). The signal was quantitated using LabWorks 4.0 software and the data fit to a logistic dose response curve using TableCurve (Jandel Scientific) to determine the IC50 for loss of the large, low salt extractable form of P-TEFb.

The target of data set [3] is recombinant P-TEFb (Cdk9/cyclin T1) (Homo sapiens, UniProt P50750). Set-up: method as in earlier work. To be noted: preparation of DRB tested earlier; Peng et al (1998) Genes and Dev. 12: 755–762; read-out: IC50 of kinase inhibition; cited from earlier work.
Sequence of recombinant P-TEFb (Cdk9/cyclin T1) (P50750 whole entry): as the sequence (P50750 whole entry) above
Sequence of recombinant P-TEFb (Cdk9/cyclin T1) (O60563 whole entry partner): as the sequence (O60563 whole entry, further chain) above
Data set [4] addresses T1, large form of P-TEFb. As to the kind of experiment: Differential salt extraction, loss of large form of P-TEFb in Jurkat cells. Format: cell-based. Conditions: 1 hour treatment, increasing concentrations. The procedure:
as §2

The subject of data set [5] is HIV-1p256. As to the kind of experiment: microbe, parasite or virus in culture. To be noted: Human immunodeficiency virus 1, HeLa37, 40 h, read-out: IC50 of inhibition of HIV in HeLa 37 cells. In kind it is cell-based. How it is done:
Short-term, single hit infectivity studies were performed as previously described. HeLa37 cells were plated in a 48-well tray and triplicate wells were infected with a dual-tropic HIV-1p256 and serial dilutions of P-TEFb inhibitor for 40 hours. The cells were fixed with 75% acetone/25% H2O and immunostained for HIV-1 antigens using human anti-HIV serum (a gift from Dr. Jack Stapleton, Univ. of Iowa) and HRP-conjugated goat anti-human IgG followed by staining with 3-amino-9-ethylcarbazole (AEC). The HIV-1 antigen-positive cells were counted. Experiments were repeated at least three times with each drug concentration in triplicate.

Data set [6] has as its system monocyte derived macrophages (MDMs). In words: Cell viability (ATPLite) in MDMs. In kind it is cell-based, human. To be noted: pooled data of independent donors; days 4, 8, 12, 16. How it is done: Human monocyte derived macrophages (MDMs) and peripheral blood lymphocytes (PBLs) cells were isolated from 350 ml of peripheral blood from healthy, HIV negative donors. Peripheral blood mononuclear cells (PBMCs) were isolated as previously described. Briefly, PBMCs were separated by centrifugation in lymphocyte separation medium (ICN Biomedicals, Solon, Ohio). The separated PBMCs were placed on gelatin and fibronectin-coated flasks in order to separate monocytes from mononuclear cells. Adherent monocytes were lifted with EDTA, washed and plated at a density of 1 × 10^6 per well in 48-well trays for infectivity and cytotoxicity studies. Monocytes were differentiated for 5 days in DMEM with 10% FCS, 10% human serum and 1% penicillin/streptomycin in order to generate monocyte-derived macrophages prior to HIV infections and drug treatment. PBLs were treated with 5 μg/ml of phytohaemagglutinin (PHA) for 72 hours prior to HIV infection and drug treatment. […] During long term studies in primary cells, supernatants were collected at 4, 8, 12 and 16 days post-infection, frozen at -80°C until analyzed and media was refreshed.
The impact of the P-TEFb inhibitors on cell viability was measured by ATPlite (Perkin Elmer). […] The amount of light produced in each well was measured in a TopCountR Microplate Scintillation and Luminescence Counter (Packard Instruments). […]

Data set [7] relates to HIV-1p256. As to the kind of experiment: Long-term HIV-1 replication in MDMs (RT activity in supernatants). In kind it is cell-based. Conditions: Human immunodeficiency virus 1, pooled data of independent donors; days 4, 8, 12, 16; read-out: average IC50 for inhibition of HIV-1 replication in MDMs. How it is done:
(§3) Peripheral blood mononuclear cells (PBMCs) were isolated as previously described. Briefly, PBMCs were separated by centrifugation in lymphocyte separation medium (ICN Biomedicals, Solon, Ohio). The separated PBMCs were placed on gelatin and fibronectin-coated flasks in order to separate monocytes from mononuclear cells. […] PBLs were treated with 5 μg/ml of phytohaemagglutinin (PHA) for 72 hours prior to HIV infection and drug treatment. […] During long term studies in primary cells, supernatants were collected at 4, 8, 12 and 16 days post-infection, frozen at -80°C until analyzed and media was refreshed. […] Reverse transcriptase (RT) assays were performed on supernatants from HIV-1p256 infected cells as previously described. […] The mixture was incubated at 37°C for 3.5 hours and then blotted onto DE81 paper. The DE81 paper was washed 4 times with 3× SSPE and the amount of radioactivity that was incorporated into negative strand DNA was quantified with an InstantImager (Packard Instruments).

The subject of data set [8] is peripheral blood lymphocytes (PBLs). In words: Cell viability (ATPLite) in PBLs. Format: cell-based, human. Conditions: average of days 4, 8, 12, 16. How it is done:
Human monocyte derived macrophages (MDMs) and peripheral blood lymphocytes (PBLs) cells were isolated from 350 ml of peripheral blood from healthy, HIV negative donors. Peripheral blood mononuclear cells (PBMCs) were isolated as previously described. Briefly, PBMCs were separated by centrifugation in lymphocyte separation medium (ICN Biomedicals, Solon, Ohio). The separated PBMCs were placed on gelatin and fibronectin-coated flasks in order to separate monocytes from mononuclear cells. Adherent monocytes were lifted with EDTA, washed and plated at a density of 1 × 10^6 per well in 48-well trays for infectivity and cytotoxicity studies. Monocytes were differentiated for 5 days in DMEM with 10% FCS, 10% human serum and 1% penicillin/streptomycin in order to generate monocyte-derived macrophages prior to HIV infections and drug treatment. PBLs were treated with 5 μg/ml of phytohaemagglutinin (PHA) for 72 hours prior to HIV infection and drug treatment. PHA-treated PBLs were plated at a density of 1 × 10^6 per well in 48-well trays and maintained in RPMI 1640 with 10% FCS, 1% Penicillin/Streptomycin and 10 units/ml of recombinant IL-2. Viral infection was performed in MDMs and PBLs by adding 10,000 RT units of HIV-1p256 stock per 1 × 10^6 cells. During long term studies in primary cells, supernatants were collected at 4, 8, 12 and 16 days post-infection, frozen at -80°C until analyzed and media was refreshed.
as §1, with “Cytotoxicity experiments in HeLa37 cells were repeated at least three times with triplicates of each drug concentration.” left out

The test system of data set [9] is HIV-1p256. As to the kind of experiment: Long-term HIV-1 replication in PBLs (RT activity in supernatants). Format: cell-based. To be noted: average of days 4, 8, 12, 16, read-out: average IC50 for inhibition of viral replication in PBLs. How it is done:
as §3

For data set [10] the following is noted: Phase I trials, highest tested doses; cited from earlier work.
The next data set has as its system HIV-1. Set-up: method as in PMID 11461999. To be noted: extensive 6 month study; cited from earlier work.

As for `OC[C@H]1O[C@@H](n2cnc3cc(Cl)c(Cl)cc32)[C@H](O)[C@@H]1O` [DRB, 5,6-dichloro-1-beta-D-ribofuranosylbenzimidazole], the “Hela37 cell cytotoxicity (LD50)” value in the data set with HeLa37 cells turned out to be 20 µM. In addition, the “P-TEFb subunits left in the large form of the complex” value at large form of P-TEFb [1] (10 μM DRB, 1 hour, without DRB approx. 60% of Cdk9 and 70% of cyclin T1) was “about 20%”. The IC50 at large form of P-TEFb [1] (HeLa cells, 1 hour treatment, Cdk9 and cyclin T1 immunoblot of glycerol gradient fractions, read-out: concentration causing a 50% reduction in large form within the cell) was around 3000 nM; at large form of P-TEFb [2] (read-out: IC50 for the release of free form of P-TEFb from the large form of the complex, HeLa37 cells, low salt extraction) it was around 4500 nM; on large form of P-TEFb [2] (read-out: IC50 of loss of large form from HeLa cells: Cdk9, Cdk9 western blot), 4200 ± 1600 nM; at large form of P-TEFb [2] (read-out: IC50 of loss of large form from HeLa cells: Cyclin T1, cyclin T1 western blot), 5000 ± 3000 nM; in [3], 900 nM; with HIV-1p256 [5], 2600 nM. Moreover, the “P-TEFb subunits in cytosolic extracts prepared with low salt lysis buffer” value on large form of P-TEFb [2] (HeLa cells, 100 μM DRB, 1 hour, untreated approx. 50% in cytosolic extract) is “not detected”. Besides, the “effect on amount of the large form of P-TEFb” value on large form of P-TEFb [4] is on record as “gradual reduction of the large form”.

On to `CN1CC[C@H](c2c(O)cc(O)c3c(=O)cc(-c4ccccc4Cl)oc23)[C@H](O)C1` [Flavopiridol], for which the “LD50 in MDMs” value in [6] is given as 99 nM. In addition, the IC50 is 61 nM in the data set on HIV-1p256 [7]; 9.5 nM in the data set with HIV-1p256 [5]; 35 nM with HIV-1p256 [9] (Human immunodeficiency virus 1, donor #1); 40 nM with HIV-1p256 [9] (Human immunodeficiency virus 1, donor #2); 61 nM in the data set on HIV-1p256 [9] (Human immunodeficiency virus 1, donor #3). Further, the results for the “LD50 in PBLs” value in [8] (donor #1), in [8] (donor #2) and in data set [8] (donor #3) were 143 nM, 81 nM and 123 nM, respectively. The “Hela37 cell cytotoxicity (LD50)” value in the data set with HeLa37 cells is 0.225 µM. The “effect on amount of the large form of P-TEFb” value on large form of P-TEFb [4] is given as “gradual reduction in the amount of the large form”.

Consider `CC[C@H](CO)Nc1nc(NCc2ccccc2)c2ncn(C(C)C)c2n1` [Seliciclib], for which, in [10], the side effects caused entry was “fatigue and elevated creatinine”.

As for `CC[C@H](CO)Nc1nc(NCc2ccccc2)c2ncn(C(C)C)c2n1` [roscovitine], the “generation of a resistant HIV-1 strain” value with HIV-1 was “unsuccessful”.
